Data from US20240238294A1, “ANTICANCER THERAPY” (Boehringer Ingelheim International GmbH, priority 2021, published 2024).
Read-outs that look alike come from different tables or passages of the source. Each block holds one molecule with its values, some of them ahead of it.

What was measured:
[1] = system: Ba/F3 cells harboring KRAS G12C; assay: growth inhibition assay, Ba/F3 cells with KRAS G12C; type: cell-based, murine; conditions: Mus musculus, BaF3; Table 3, Ba/F3 G12C, 72 hours
Source text: (§1) Briefly, each KRAS mutation was introduced using a Prime STAR Mutagenesis Basal Kit (Takara) with designed primers into the pBABE-puro-KRas construct (Addgene, Cambridge, MA, USA). Retroviral particles were generated by co-transfection of each pBABE-puro-KRAS construct and pVSV-G vector (Clontech, Fremont, CA, USA) into gp-IRES 293 cells with FuGENE6 transfection reagent (Roche Diagnostics, Basel, Switzerland). Viral particles were concentrated using a retrovirus concentration kit (Clontech). Ba/F3 cells (3×103) or H358 cells (1×104) were transfected with each retrovirus and cultured at 37° C. for a few days. The transfected Ba/F3 cells or H358 cells were selected with 0.8-1.0 μg/mL or 2.0 μg/mL of puromycin, respectively. […]
(§2) In the two-dimensional (2D) growth inhibition assay, 5x10^3 cells were cultured in 96-well plates for 24 hours and treated with reagents at ten different concentrations for 72 hr. […] The amount of formazan dye, which reflects cell viability, was measured by reading the absorbance at 450 nm using a multiplate reader (Tecan, Mannedorf, Switzerland). […] IC50 values were determined by a nonlinear regression curve fit utilizing a variable slope model with normalized the response in GraphPad prism version 8 (GraphPad Software, San Diego, CA). […]

[2] = system: Ba/F3 cells harboring KRAS G12C + A59S (introduced); assay: growth inhibition assay, Ba/F3 cells with introduced KRAS G12C plus secondary mutation; type: cell-based, murine; conditions: Mus musculus, BaF3; Table 3, Ba/F3 G12C + A59S, 72 hours
Source text: (§3) Briefly, each KRAS mutation was introduced using a Prime STAR Mutagenesis Basal Kit (Takara) with designed primers into the pBABE-puro-KRas construct (Addgene, Cambridge, MA, USA). Retroviral particles were generated by co-transfection of each pBABE-puro-KRAS construct and pVSV-G vector (Clontech, Fremont, CA, USA) into gp-IRES 293 cells with FuGENE6 transfection reagent (Roche Diagnostics, Basel, Switzerland). Viral particles were concentrated using a retrovirus concentration kit (Clontech). Ba/F3 cells (3×103) or H358 cells (1×104) were transfected with each retrovirus and cultured at 37° C. for a few days. The transfected Ba/F3 cells or H358 cells were selected with 0.8-1.0 μg/mL or 2.0 μg/mL of puromycin, respectively. After puromycin selection, presence of each KRAS mutation was confirmed as follows; total RNA was extracted from cells using a mirVana miRNA Isolation Kit (Qiagen, Hilden, Germany), and cDNA was generated by reverse transcription using ReverTra Ace (TOYOBO, Osaka, Japan). The KRAS coding sequence was amplified by PCR. The KRAS nucleotide sequence was checked by Sanger sequencing using the 3130 or 3500XL Genetic Analyzer (Applied Biosystems, Waltham, MA).
(§4) In the two-dimensional (2D) growth inhibition assay, 5x10^3 cells were cultured in 96-well plates for 24 hours and treated with reagents at ten different concentrations for 72 hr. Cell viability assays were performed using Cell Counting Kit-8 (Dojindo Laboratories, Kumamoto, Japan). The amount of formazan dye, which reflects cell viability, was measured by reading the absorbance at 450 nm using a multiplate reader (Tecan, Mannedorf, Switzerland). In the 3D growth inhibition assay, 5×10^3 cells were embedded in growth factor-reduced Matrigel (Corning, New York, USA) and cultured in RPMI 1640 medium (Wako) with 10% FBS (Sigma-Aldrich) and P/S (Wako) in 96-well plates. After 72 hours of incubation, cells were treated with the indicated concentrations for 72 hours, and a cell viability assay was performed as described above. IC50 values were determined by a nonlinear regression curve fit utilizing a variable slope model with normalized the response in GraphPad prism version 8 (GraphPad Software, San Diego, CA).
(§5) The RI value was calculated with the following formula: IC50 of each reconstructed Ba/F3 cell/IC50 of parental Ba/F3 cells with KRAS G12C.
(§6) The results are shown as the mean values of three individual experiments. Error bars indicate the standard deviation (SD).

[3] = system: Ba/F3 cells harboring KRAS G12C + Y96D (introduced); assay: as above; type: cell-based, murine; conditions: Table 3, Ba/F3 G12C + Y96D
Source text: as §3, §4, §5, §6

[4] = system: Ba/F3 cells harboring KRAS G12C + Y96S (introduced); assay: as above; type: cell-based, murine; conditions: Table 3, Ba/F3 G12C + Y96S
Source text: as §3, §4, §5, §6

[5] = system: H358 cells with KRAS G12C + Y96D; conditions: 2D, monotherapy
Source text: as §1, with “Ba/F3 cells (3×103) or H358 cells (1×104) were transfected with each retrovirus and cultured at 37° C. for a few days.” left out
as §2

[6] = system: H358 cells with KRAS G12C + Y96S; conditions: 2D, monotherapy
Source text: as §1, with “Ba/F3 cells (3×103) or H358 cells (1×104) were transfected with each retrovirus and cultured at 37° C. for a few days.” left out
as §2

[7] = system: H358 cells with KRAS G12C + Y96D; conditions: 3D, monotherapy
Source text: as §1, §2

[8] = system: H358 cells with KRAS G12C + Y96S; conditions: 3D, monotherapy
Source text: as §1, §2

[9] = system: H358 cells harboring G12C plus Y96D; conditions: 72 hours, FIG. 4
Source text: as §1, §2

[10] = system: H358 cells harboring G12C plus Y96S; conditions: 72 hours, FIG. 4
Source text: as §1, §2

- IC50 [1]: 0.455 µM
- IC50 [2]: 3.05 µM
- IC50 ([3]; Mus musculus, BaF3, 72 h): > 1 µM
- IC50 ([3]; 72 hours): 1.09 µM
- IC50 ([4]; Mus musculus, BaF3, 72 h): > 1 µM
- IC50 ([4]; 72 hours): 1.15 µM
Compound: C[C@@H]1OCC2(CCN(c3cnc(Sc4ccnc(N)c4Cl)c(N)n3)CC2)[C@@H]1N [TNO 155]

Compound: COc1cc2nc(C)nc(N[C@H](C)c3cc(N)cc(C(F)(F)F)c3)c2cc1O[C@H]1CCOC1 [BI-3406]
- growth inhibition [5]: modestly inhibited growth
- growth inhibition [6]: modestly inhibited growth
- growth inhibition [7]: modestly inhibited growth
- growth inhibition [8]: modestly inhibited growth

Compound: C=CC(=O)N1CCN(c2nc(=O)n(-c3c(C)ccnc3C(C)C)c3nc(-c4c(O)cccc4F)c(F)cc23)[C@@H](C)C1 [sotorasib]
- IC50 compared to parental H358 cells [9]: approximately 30 times
- IC50 compared to parental H358 cells [10]: approximately 30 times
